Reference: patent US4673747A, “Aminoalkylphenoxy derivatives” (Ikeda Mohando Co., Ltd., priority 1984, dated 1987)

Key:
[1] = test system: Gastric acid secretion induced by histamine; assay: Inhibition effect on gastric acid secretion induced by histamine in pylorus ligated rat (subcutaneous); type: in vivo, rat (male Wistar); conditions: histamine 3 mg/kg SC, average of five runs, * p<0.05, ** p<0.01 vs control group, read-out: Secretion of Gastric Acid in Rat, Inhibition Rate (%); for inhibition in vivo at 0.2 mg/kg: 0.2 mg/kg SC
Protocol: A male Wistar rat having a body weight of about 160 g and which had not fed for 24 hours was anesthetized by an intraperitonea dose of 1.2 g/kg of uretane. After ligating of pylorus and esophagus, the gaster anterior was incised and fitted with a double polyethylene cannula. The wall of the stomach was rinsed with 5 ml of saline at 30 minute intervals, and the quantities of gastric acid contained in each rinsing solution were measured by titration.
The basal acid secretion was initially measured three times, and then 0.2 mg/kg or 0.5 mg/kg of each of the compounds of this invention was administered subcutaneously and 3 mg/kg of histamine was administered subcutaneously after the lapse of an additional 30 minutes.
The quantity of gastric acid secreated after the operation was measured continuously for 3 hours. Within that measurement interval, three time points at which the increase in acid secretion reached a maximum level were selected, and the average quantity of gastric acid secreted at those time points was taken as the increase in acid secretion, which was compared with the increase in acid secretion of the control group to calculate the percent inhibition for secretion of gastric acid. [formula] (The result was shown as the average value of five runs.)

Histamine H2-Receptor = target: T1, Histamine H2-Receptor (Cavia porcellus, UniProt P47747); design: species or system guinea pig (male Hartley); conditions: isolated guinea pig atrium; negative logarithm of molar concentration; heart beats, histamine dose-response; read-out: Antagonistic Action against Histamine H2-Receptor (pA2) Determined by Using Atrium isolated from Guinea Pig (converted)
T1 construct: from tissue; host or cells: isolated atrium of male Hartley guinea pig
Protocol: A male Hartley guinea pig having a body weight of about 400 g was killed by cervical dislocation, and the artrium thereof was isolated and was suspended in an organ bath containing 50 ml of a modified Ringer solution and subjected to a tension of 1 g. The number of heart beats under such condition was recorded using a polygraph.
Initially, from 1×10^-7 mol to 3×10^-4 mol of histamine was allowed to act accumulatively to depict the curve of the dosage-reaction relationship. Likewise, the curve of the dosage of histamine-reaction relationship was depicted in the presence of 5×10^-7 mol to 1×10^-6 mol of the test sample which was injected 3 minutes before. The negative logarithm (pA2) of the molar concentration of the test sample required for moving the curve obtained by single administration of histamine parallel to the right side by a two-times concentration was calculated.

[2] = test system: Gastric acid secretion induced by histamine; assay: Inhibitory effect of intraduodenally administered compounds on gastric acid secretion induced by histamine in rat; type: in vivo, rat (male Wistar); conditions: intraduodenal, rat; for ED50: 0.5 h, 30 minutes before SC histamine, read-out: Median effective dose (ED50), Gastric Acid Secretion; for Efficacy Ratio relative to Cimetidine (Cimetidine = 1): from ED50; for ED50 value: times as effective as Cimetidine (activity ratio): text discussing Table 2

T1 sequence (P47747 whole entry): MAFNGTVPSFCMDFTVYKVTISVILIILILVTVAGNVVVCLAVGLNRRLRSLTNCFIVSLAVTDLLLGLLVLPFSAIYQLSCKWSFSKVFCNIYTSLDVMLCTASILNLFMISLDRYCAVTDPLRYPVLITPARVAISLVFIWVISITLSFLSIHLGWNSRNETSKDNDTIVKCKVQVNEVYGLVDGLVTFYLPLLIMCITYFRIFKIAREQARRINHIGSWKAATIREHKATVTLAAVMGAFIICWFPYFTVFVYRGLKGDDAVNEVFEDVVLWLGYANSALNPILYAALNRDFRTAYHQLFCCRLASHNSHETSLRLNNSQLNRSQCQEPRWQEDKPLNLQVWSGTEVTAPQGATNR

| Compound | inhibition in vivo at 0.2 mg/kg [1] | Kb (Histamine H2-Receptor) | ED50 [2] | Efficacy Ratio relative to Cimetidine (Cimetidine = 1) [2] | ED50 value: times as effective as Cimetidine (activity ratio) [2] | inhibition in vivo at 0.5 mg/kg ([1]; 0.5 mg/kg SC) |
| --- | --- | --- | --- | --- | --- | --- |
| C#CCNc1c(NC/C=C\COc2cccc(CN3CCCCC3)c2)c(=O)c1=O [Ex. 4, 1-(2-propagylamino)-2-[4-<3-(1-piperidinomethyl)phenoxy>-cis-2-butenylamino]-1-cyclobuten-3,4-dione] | 66% | 776 nM | – | – | – | – |
| CNc1nnc(NC/C=C/COc2cccc(CN3CCCCC3)c2)s1 [Ex. 26, 2-methylamino-5-[4-<3-(1-piperidinomethyl)-phenoxy>-trans-2-butenylamino]-1,3,4-thiadiazole] | 45% | 9550 nM | – | – | – | – |
| Nc1n[s+]([O-])nc1NC/C=C\COc1cccc(CN2CCCC2)c1 (stereo not drawn) [Ex. 17, 3-amino-4-[4-<3-(1-pyrrolidinomethyl)phenoxy>-cis-2-butenylamino]-1,2,5-thiadiazole-1-oxide] | 86% | 97.7 nM | 0.82 mg/kg | 8.8 | – | – |
| CNc1nnc(NC/C=C\COc2cccc(CN3CCCCC3)c2)s1 [Ex. 28, 2-methylamino-5-[4-<3-(1-piperidinomethyl)-phenoxy>-cis-2-butenylamino]-1,3,4-thiadiazole] | 75% | 4680 nM | 0.62 mg/kg | 11.6 | – | – |
| CNc1nn(C)c(=O)nc1NC/C=C/COc1cccc(CN2CCCCC2)c1 [Ex. 12, 2-methyl-6-methylamino-5-[4-<3-(1-piperidinomethyl)phenoxy>-trans-2-butenylamino]-1,2,4-triazin-3-one] | 44% | 1510 nM | – | – | – | – |
| Nc1c(NC/C=C\COc2cccc(CN3CCCC3)c2)c(=O)c1=O [Ex. 8, 1-amino-2-[4-<3-(1-pyrrolidinomethyl)phenoxy>-cis-2-butenylamino]-1-cyclobuten-3,4-dione] | 88% | 151 nM | 0.07 mg/kg | 10.3 | – | – |
| Nc1c(NC/C=C/COc2cccc(CN3CCCCC3)c2)c(=O)c1=O [Ex. 6, 1-amino-2-[4-<3-(1-piperidinomethyl)phenoxy>-trans-2-butenylamino]-1-cyclobuten-3,4-dione] | 25% | 178 nM | – | – | – | – |
| NC1=NS(=O)(=O)N=C1NC/C=C\COc1cccc(CN2CCCCC2)c1 [Reference Ex. 1, 3-amino-4-[4-<3-(1-piperidinomethyl)phenoxy>-cis-2-butenylamino]-1,2,5-thiadiazole-1,1-dioxide, reference compound] | – | – | 0.2 mg/kg | 36.0 | 36 times | – |
| CC(C)Nc1n[s+]([O-])nc1NC/C=C\COc1cccc(CN2CCCCC2)c1 (stereo not drawn) [Ex. 19, 3-isopropylamino-4-[4-<3-(1-piperidinomethyl)phenoxy>-cis-2-butenylamino]-1,2,5-thiadiazole-1-oxide] | 82% | 2400 nM | 0.88 mg/kg | 8.2 | – | – |
| Nc1nnc(NC/C=C\COc2cccc(CN3CCCC3)c2)s1 [Ex. 29, 2-amino-5-[4-<3-(1-pyrrolidinomethyl)-phenoxy>-cis-2-butenylamino]-1,3,4-thadiazole] | 36% | 316 nM | – | – | – | – |
| CCCNc1n[s+]([O-])nc1NC/C=C\COc1cccc(CN2CCCCC2)c1 (stereo not drawn) [Ex. 20, 3-n-propylamino-4-[4-<3-(1-piperidinomethyl)phenoxy>-cis-2-butenylamino]-1,2,5-thiadiazol-1-oxide] | 88% | 389 nM | 0.58 mg/kg | 9.0 | – | – |
| CC1CCCN(Cc2cccc(OC/C=C\CNc3c(N)c(=O)c3=O)c2)C1 (stereo not drawn) [Ex. 34, 1-amino-2-[4-{3-<1-(3-methylpiperidino)methyl>phenoxy}-cis-2-butenylamino]-1-cyclobutene-3,4-dione] | 100% | 70.8 nM | 0.17 mg/kg | 42.1 | – | – |
| CNc1c(NC/C=C/COc2cccc(CN3CCCCC3)c2)c(=O)c1=O [Ex. 7, 1-methylamino-2-[4-<3-(1-piperidinomethyl)phenoxy>-trans-2-butenylamino]-1-cyclobuten-3,4-dione] | 28% | 513 nM | – | – | – | – |
| O=c1c(NC/C=C\COc2cccc(CN3CCCCC3)c2)c(NCc2ccncc2)c1=O [Ex. 38] | 98% | 589 nM | 0.04 mg/kg | 180.0 | – | – |
| O=c1c(NC/C=C\COc2cccc(CN3CCCCC3)c2)c(NCc2cccnc2)c1=O [Ex. 37, 1-(3-pyridylmethylamino)-2-[4-<3-(1-piperidinomethyl)phenoxy>-cis-2-butenylamino]-1-cyclobutene-3,4-dione] | 90% | 646 nM | 0.074 mg/kg | 97.3 | – | – |
| CC1CCCCN1Cc1cccc(OC/C=C\CNc2c(N)c(=O)c2=O)c1 (stereo not drawn) [Ex. 33, 1-amino-2-[4-{3-<1-(2-methylpiperidino)-methyl>phenoxy}-cis-2-butenylamino]-1-cyclobutene-3,4-dione] | 70% | 166 nM | 0.4 mg/kg | 18.0 | – | – |
| CN(C)Cc1cccc(OC/C=C\CNc2n[s+]([O-])nc2N)c1 (stereo not drawn) [Ex. 21, 3-<4-(3-dimethylaminomethylphenoxy)-cis-2-butenylamino>-4-amino-1,2,5-thiadiazole-1-oxide] | 99% | 229 nM | 2 mg/kg | 3.6 | – | – |
| Nc1n[nH]c(=O)nc1NC/C=C/COc1cccc(CN2CCCCC2)c1 [Ex. 11, 6-amino-5-[4-<3-(1-piperidinomethyl)phenoxy>-trans-2-butenylamino]-1,2,4-triazin-3-one] | 88% | 661 nM | 0.44 mg/kg | 16.4 | – | – |
| CNc1nnc(NC/C=C\COc2cccc(CN3CCCC3)c2)s1 [Ex. 30, 2-methylamino-5-[4-<3-(1-pyrrolidinomethyl)-phenoxy>-cis-2-butenylamino]-1,3,4-thiadiazole] | 17% | 550 nM | – | – | – | – |
| Cn1c(NC/C=C/COc2cccc(CN3CCCCC3)c2)cc(N)nc1=O [Ex. 14, 1-methyl-4-amino-6-[4-<3-(1-piperidinomethyl)phenoxy>-trans-2-butenylamino]-(1H)-pyrimidin-2-one] | -9% | 7080 nM | – | – | – | – |
| Nc1n[s+]([O-])nc1NC/C=C\COc1cccc(CN2CCCCC2)c1 (stereo not drawn) [Ex. 15] | – | 437 nM | 0.066 mg/kg | 109.1 | ~110 times | 98% |
| Nc1nnc(NC/C=C/COc2cccc(CN3CCCCC3)c2)s1 [Ex. 25, 2-amino-5-[4-<3-(1-piperidinomethyl)phenoxy>-trans-2-butenylamino]-1,3,4-thiadiazole] | 77% | 204 nM | – | – | – | – |
| Nc1nnc(NC/C=C\COc2cccc(CN3CCCCC3)c2)s1 [Ex. 27, 2-amino-5-[4-<3-(1-piperidinomethyl)-phenoxy>-cis-2-butenylamino]-1,3,4-thiadiazole] | 87% | 490 nM | 0.45 mg/kg | 16.0 | – | – |
| CNc1n[s+]([O-])nc1NC/C=C\COc1cccc(CN(C)C)c1 (stereo not drawn) [Ex. 22, 3-<4-(3-dimethylaminomethylphenoxy)-cis-2-butenylamino>-4-methylamino-1,2,5-thiadiazole-1-oxide] | 88% | 316 nM | 0.62 mg/kg | 11.6 | – | – |
| CNC1=NS(=O)(=O)N=C1NC/C=C\COc1cccc(CN2CCCCC2)c1 [Reference Ex. 2, 3-methylamino-4-[4-<3-(1-piperidinomethyl)phenoxy>-cis-2-butenylamino]-1,2,5-thiadiazole-1,1-dioxide, reference compound] | – | – | 0.44 mg/kg | 16.4 | 16 times | – |
